Experimental data reported in patent US20040110802A1, “Antibacterial benzoic acid derivatives” (priority 2002, published 2004).
Converted amounts (≈) assume the structure as drawn.

Tested on: SAUR 9218
Experiment: MIC Test Method, standard agar dilution
Type: cell-based
Settings: agar dilution, Mueller Hinton agar, incubated overnight at 35° C.; lowest concentration that inhibits visible growth; read-out: SAUR 9218 MIC
Procedure: The in vitro MiCs of test compounds were determined by a standard agar dilution method. A stock drug solution of each analog was prepared in the preferred solvent, usually DMSO:H2O (1:3). Serial 2-fold dilutions of each sample are made using 1.0 ml aliquots of sterile distil]ed water. To each 1.0 ml aliquot of drug was added 9 ml of molten Mueller Hinton agar medium. The drug-supplemented agar was mixed, poured into 15×100 mm petri dishes, and allowed to solidify and dry prior to inoculation.
Vials of each of the test organisms are maintained frozen in the vapor phase of a liquid nitrogen freezer. Test cultures are grown overnight at 35° C. on the medium appropriate for the organism. Colonies are harvested with a sterile swab, and cell suspensions are prepared in Trypticase Soy broth (TSB) to equal the turbidity of a 0.5 McFamland standard. A 1:20 dilution of each suspension was made in TSB. The plates containing the drug supplemented agar are inoculated with a 0.001 ml drop of the cell suspension using a Steers replicator, yielding approximately 10^4 to 10^5 cells per spot. The plates are incubated overnight at 35° C.
Following incubation the Minimum Inhibitory Concentration (MIC μg/ml), the lowest concentration of drug that inhibits visible growth of the organism, was read and recorded.

Compound	MIC [µg/mL]
CCCCS(=O)(=O)N(c1ccc2cc(C(=O)Nc3ccc(C#N)cc3C(=O)O)n(C)c2c1)S(=O)(=O)CCCC	2 (≈ 3.48 µM)
Cn1c(C(=O)Nc2ccc(C#N)cc2C(=O)O)cc2ccc(N(S(=O)(=O)c3ccccc3)S(=O)(=O)c3ccccc3)cc21	0.5 (≈ 0.813 µM)
CCCCCCSc1ccc(C(=O)Nc2ccc(C#N)cc2C(=O)O)nc1	0.125 (≈ 0.326 µM)
N#Cc1ccc(NC(=O)c2ccc(SCCCCCO)nn2)c(C(=O)O)c1	0.06 (≈ 0.155 µM)
N#Cc1ccc(NC(=O)c2ccc(SCC(=O)c3ccc4c(c3)C(=O)NCO4)nn2)c(C(=O)O)c1	0.5 (≈ 1.02 µM)
Cc1ccccc1-c1ccc2onc(C(=O)Nc3ccc(C#N)cc3C(=O)O)c2c1	0.125 (≈ 0.315 µM)
COCOCC(O)C(Cc1cnc(C(=O)Nc2ccc(Br)cc2C(=O)O)cn1)OC (centres unmarked)	128 (≈ 264 µM)
N#Cc1ccc(NC(=O)c2noc3ccc(S(=O)(=O)N4CCCC4)cc23)c(C(=O)O)c1	0.06 (≈ 0.136 µM)
CCCN(CCC)S(=O)(=O)c1ccc2onc(C(=O)Nc3ccc(C#N)cc3C(=O)O)c2c1	0.25 (≈ 0.531 µM)
N#Cc1ccc(NC(=O)c2noc3ccc(S(=O)(=O)N4CCc5cc(Cl)ccc54)cc23)c(C(=O)O)c1	0.03 (≈ 0.0574 µM)
Cn1nc(C(=O)Nc2ccc(C#N)cc2C(=O)O)c2ccccc21	32 (≈ 99.9 µM)
O=C(O)c1cc(Br)ccc1NC(=O)c1noc2ccc(S(=O)(=O)N3CCOCC3)cc12	0.5 (≈ 0.98 µM)
CNC(=O)Nc1ccc2cc(C(=O)Nc3ccc(C#N)cc3C(=O)O)n(C)c2c1	2 (≈ 5.11 µM)
CC(C)NC(=O)Nc1ccc2cc(C(=O)Nc3ccc(C#N)cc3C(=O)O)n(C)c2c1	0.5 (≈ 1.19 µM)
CNS(=O)(=O)c1ccc2onc(C(=O)Nc3ccc(C#N)cc3C(=O)O)c2c1	0.06 (≈ 0.15 µM)
CC(=O)Nc1ccc(S(=O)(=O)N(c2ccc3cc(C(=O)Nc4ccc(C#N)cc4C(=O)O)n(C)c3c2)S(=O)(=O)c2ccc(NC(C)=O)cc2)cc1	1 (≈ 1.37 µM)
O=C(O)c1cc(Br)ccc1NC(=O)c1noc2ccc(S(=O)(=O)NCc3ccccc3)cc12	0.06 (≈ 0.113 µM)
CS(=O)(=O)c1ccc(-c2ccc3onc(C(=O)Nc4ccc(C#N)cc4C(=O)O)c3c2)cc1	0.5 (≈ 1.08 µM)
O=C(O)c1cc(Br)ccc1NC(=O)c1noc2ccc(S(=O)(=O)N3CCCC3)cc12	0.25 (≈ 0.506 µM)
CNS(=O)(=O)c1ccc2onc(C(=O)Nc3ccc(Br)cc3C(=O)O)c2c1	0.125 (≈ 0.275 µM)
NS(=O)(=O)c1ccc2onc(C(=O)Nc3ccc(Br)cc3C(=O)O)c2c1	0.25 (≈ 0.568 µM)
Cn1c(C(=O)Nc2ccc(C#N)cc2C(=O)O)cc2ccc(NC(=O)N3CCOCC3)cc21	4 (≈ 8.94 µM)
N#Cc1ccc(NC(=O)c2noc3ccc(-c4ccc(C(=O)N5CCOCC5)cc4)cc23)c(C(=O)O)c1	0.25 (≈ 0.504 µM)
CC(=O)c1ccccc1-c1ccc2onc(C(=O)Nc3ccc(C#N)cc3C(=O)O)c2c1	0.5 (≈ 1.18 µM)
COc1ccc(OC)c(-c2ccc3onc(C(=O)Nc4ccc(C#N)cc4C(=O)O)c3c2)c1	0.25 (≈ 0.564 µM)
CC(=O)Nc1ccccc1-c1ccc2onc(C(=O)Nc3ccc(C#N)cc3C(=O)O)c2c1	0.5 (≈ 1.14 µM)
CCS(=O)(=O)Nc1cccc2cc(C(=O)Nc3ccc(C#N)cc3C(=O)O)n(C)c12	0.5 (≈ 1.17 µM)
Cn1c(C(=O)Nc2ccc(C#N)cc2C(=O)O)cc2cccc(N(S(C)(=O)=O)S(C)(=O)=O)c21	0.125 (≈ 0.255 µM)

Continued, values first:

MIC [µg/mL]	Compound
16 (≈ 52.2 µM)	N#Cc1ccc(NC(=O)c2n[nH]c3ccccc23)c(C(=O)O)c1
0.03 (≈ 0.0581 µM)	O=C(O)c1cc(Br)ccc1NC(=O)c1noc2ccc(S(=O)(=O)Nc3ccccc3)cc12
0.5 (≈ 1.14 µM)	CCCCCCSc1ccc(C(=O)Nc2ccc(Br)cc2C(=O)O)nc1
0.5 (≈ 1.04 µM)	Cn1c(C(=O)Nc2ccc(C#N)cc2C(=O)O)cc2ccc(NS(=O)(=O)c3cccs3)cc21
0.5 (≈ 1.05 µM)	N#Cc1ccc(NC(=O)c2noc3ccc(S(=O)(=O)N(CCO)CCO)cc23)c(C(=O)O)c1
0.06 (≈ 0.0957 µM)	Cn1c(C(=O)Nc2ccc(C#N)cc2C(=O)O)cc2ccc(N(S(=O)(=O)c3cccs3)S(=O)(=O)c3cccs3)cc21
0.25 (≈ 0.534 µM)	CN(C)S(=O)(=O)c1ccc2onc(C(=O)Nc3ccc(Br)cc3C(=O)O)c2c1
0.25 (≈ 0.504 µM)	CCN(CC)S(=O)(=O)c1ccc2onc(C(=O)Nc3ccc(Br)cc3C(=O)O)c2c1
0.0075 (≈ 0.0121 µM)	CC(=O)Nc1ccc(-c2cc3onc(C(=O)Nc4ccc(Br)cc4C(=O)O)c3cc2NC(C)=O)c(C(F)(F)F)c1
0.5 (≈ 1.14 µM)	CC(=O)Nc1cccc(-c2ccc3onc(C(=O)Nc4ccc(C#N)cc4C(=O)O)c3c2)c1
0.03 (≈ 0.0705 µM)	N#Cc1ccc(NC(=O)c2cc(-c3ccccc3Oc3ccccc3)on2)c(C(=O)O)c1
0.5 (≈ 1.11 µM)	CC(=O)Nc1cccc(-c2cccc3cc(C(=O)Nc4ccc(C#N)cc4C(=O)O)n(C)c23)c1
0.06 (≈ 0.151 µM)	Cc1ccccc1-c1ccc2c(C(=O)Nc3ccc(C#N)cc3C(=O)O)noc2c1
64 (≈ 156 µM)	O=C(Nc1ccc(Br)cc1C(=O)O)c1cnc(CC[C@H](O)CO)cn1
0.125 (≈ 0.311 µM)	Cc1noc(C)c1-c1ccc2c(C(=O)Nc3ccc(C#N)cc3C(=O)O)noc2c1
0.5 (≈ 1.04 µM)	Cn1cnc(S(=O)(=O)Nc2cccc3cc(C(=O)Nc4ccc(C#N)cc4C(=O)O)n(C)c23)c1
